According to patent US8389020B1, “Immediate action and long-lasting formulation to control moss and liverwort” (Tara Innovations LLC, priority 2011, dated 2013):

System: moss
Test: Experiment 1: ferrous sulfate/lime mixtures applied to 6″×6″ moss areas in triplicate
Type: in vivo
Settings: in mixture with lime
Experimental: In order to establish the effective concentration of ferrous sulfate in the formulation, mixtures of ferrous sulfate and lime with a ferrous sulfate concentration between 0 to 60% (w/w) were prepared (Table I) and applied to 6″×6″ area in triplicate. Water was sprayed over the area. The day time high temperature was 40° F. during the experiment and the night temperature decreased to 28° F. In one day, area with 30% or more ferrous sulfate concentration treatment turned black burning all the moss (Table II). The areas with 10% and 20% […] treatment were black in a week. There was no effect of 100% lime on the moss. Thus, a minimum concentration of 10% is suitable for the satisfactory results within a week. When % ferrous sulfate was more than 30%, the moss turned black in one day.

O.O.O.O.O.O.O.O=S(=O)([O-])[O-].[Fe+2] [ferrous sulfate, Ferrous sulfate septahydrate (FeSO4.7H2O)]
Minimum ferrous sulfate concentration suitable for satisfactory results within a week: 10%
